According to US20230002359A1, “PESTICIDALLY ACTIVE FUSED BICYCLIC HETEROAROMATIC COMPOUNDS” (priority 2019, published 2023):

Assays:
Type in all cases: in vivo
[1] = test system: Chilo suppressalis (Striped Rice Stemborer); assay: Example B3: Chilo suppressalis (striped rice stemborer), artificial diet, L2 larvae; details: 144 h, application rate of 200 ppm, 6 days after infestation, L2 larvae, read-out: control in at least one of the three categories (mortality, anti-feedant effect, or growth inhibition)
Outline: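 Artificial diet in wells was treated with aqueous test solutions diluted from 10'000 ppm DMSO stocks, dried, then infested with 6-8 L2 larvae per well. Mortality, anti-feeding effect and growth inhibition were scored against untreated samples 6 days after infestation; control means any category exceeds the untreated sample.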

[2] = test system: Myzus persicae (Green Peach Aphid); assay: Example B6: Myzus persicae (green peach aphid) intrinsic activity, sucrose solution; details: 120 h, test rate of 12 ppm, 5 days after infestation, intrinsic activity, read-out: mortality
Outline: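 Mortality was read 5 days after infestation. Aphids on pea seedlings fed through a stretched Parafilm membrane on inverted 24-well plates containing sucrose solution mixed with test compound, which was diluted from 10′000 ppm DMSO stock.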

[3] = test system: Diabrotica Balteata (Corn Root Worm); assay: Example B1: Diabrotica balteata (corn root worm), maize sprouts sprayed, L2 larvae; details: 96 h, application rate of 200 ppm, 4 days after infestation, L2 larvae, read-out: control in at least one of the two categories (mortality or growth inhibition)
Outline: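 Spray test: maize sprouts on agar, aqueous dilutions of 10′000 ppm DMSO stock; after drying, 6–10 L2 larvae/well. Read-out at 4 d post-infestation: mortality and growth inhibition vs untreated.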

[4] = test system: Euschistus heros (Neotropical Brown Stink Bug); assay: Example B2: Euschistus heros (neotropical brown stink bug), soybean leaves sprayed, N2 nymphs; details: 120 h, application rate of 200 ppm, 5 days after infestation, N2 nymphs, read-out: control in at least one of the two categories (mortality or growth inhibition)
Protocol: Soybean leaves on agar in 24-well microtiter plates were sprayed with aqueous test solutions prepared from 10′000 ppm DMSO stock solutions. After drying the leaves were infested with N2 nymphs. The samples were assessed for mortality and growth inhibition in comparison to untreated samples 5 days after infestation.

[5] = test system: Spodoptera littoralis (Egyptian Cotton Leaf Worm); assay: Example B7: Spodoptera littoralis (Egyptian cotton leaf worm), cotton leaf discs sprayed, L1 larvae; details: foliar, 72 h, application rate of 200 ppm, 3 days after infestation, L1 larvae, read-out: control in at least one of the three categories (mortality, anti-feedant effect, or growth inhibition)
Outline: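 Spray application onto agar-supported cotton leaf discs used aqueous solutions derived from 10′000 ppm DMSO stocks. Once dry, discs were infested with five L1 larvae and evaluated after 3 days for mortality, anti-feeding and growth inhibition relative to untreated controls.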

[6] = test system: Plutella xylostella (Diamond Back Moth); assay: Example B4: Plutella xylostella (diamond back moth), artificial diet, eggs, 24-well; details: 192 h, application rate of 200 ppm, 8 days after infestation, eggs, read-out: control in at least one of the two categories (mortality or growth inhibition)
Protocol: 24-well microtiter plates with artificial diet were treated with aqueous test solutions prepared from 10′000 ppm DMSO stock solutions by pipetting. After drying, Plutella eggs were pipetted through a plastic stencil onto a gel blotting paper and the plate was closed with it. The samples were assessed for mortality and growth inhibition in comparison to untreated samples 8 days after infestation.

[7] = test system: Myzus persicae (Green Peach Aphid); assay: Example B5: Myzus persicae (green peach aphid) feeding/contact activity, sunflower leaf discs; details: foliar, 144 h, application rate of 200 ppm, 6 days after infestation
Protocol: Sunflower leaf discs were placed onto agar in a 24-well microtiter plate and sprayed with aqueous test solutions prepared from 10′000 ppm DMSO stock solutions. After drying, the leaf discs were infested with an aphid population of mixed ages. The samples were assessed for mortality 6 days after infestation.

C[C@@H](c1ncnn1-c1ccc(C#N)cn1)N(C)c1ncnc2c(SC(F)(F)F)cc(C(F)(F)F)cc12 [P.215, 6-[5-[(1S)-1-[methyl-[6-(trifluoromethyl)-8-(trifluoromethylsulfanyl)quinazolin-4-yl]amino]ethyl]-1,2,4-triazol-1-yl]pyridine-3-carbonitrile]
≥ 80%: percent control (mortality, anti-feedant effect or growth inhibition) at 200 ppm [1] | mortality at 12 ppm [2] | percent control (mortality or growth inhibition) at 200 ppm [3] | percent control (mortality or growth inhibition) at 200 ppm [4] | percent control (mortality, anti-feedant effect or growth inhibition) at 200 ppm [5] | percent control (mortality or growth inhibition) at 200 ppm [6] | mortality at 200 ppm [7]

CC(c1ncnn1-c1ccc(C#N)cn1)N(C)c1ncnc2c(C(F)(F)F)cc(C(F)(F)F)cc12 (centres unmarked) [P.28, 6-[5-[1-[[6,8-bis(trifluoromethyl)quina-zolin-4-yl]-methyl-amino]ethyl]-1,2,4-triazol-1-yl]pyridine-3-carbonitrile]
≥ 80%: percent control (mortality, anti-feedant effect or growth inhibition) at 200 ppm [1] | mortality at 12 ppm [2] | percent control (mortality or growth inhibition) at 200 ppm [3] | percent control (mortality or growth inhibition) at 200 ppm [4] | percent control (mortality, anti-feedant effect or growth inhibition) at 200 ppm [5] | percent control (mortality or growth inhibition) at 200 ppm [6] | mortality at 200 ppm [7]

C[C@H](Nc1ncnc2c(C(F)(F)F)cc(C(F)(F)F)cc12)c1ncnn1-c1ncccn1 [P.1, N-[(1S)-1-(2-pyrimidin-2-yl-1,2,4-triazol-3-yl)ethyl]-6,8-bis(trifluoromethyl)quina-zolin-4-amine]
≥ 80%: percent control (mortality, anti-feedant effect or growth inhibition) at 200 ppm [1] | mortality at 12 ppm [2] | percent control (mortality or growth inhibition) at 200 ppm [3] | percent control (mortality or growth inhibition) at 200 ppm [4] | percent control (mortality, anti-feedant effect or growth inhibition) at 200 ppm [5] | percent control (mortality or growth inhibition) at 200 ppm [6] | mortality at 200 ppm [7]

C[C@@H](c1ncnn1-c1ccc(C#N)cn1)N(C)c1ncnc2c(C(F)(F)F)cc(C(F)(F)F)cc12 [P.54, 6-[5-[(1S)-1-[[6,8-bis(trifluoromethyl)quina-zolin-4-yl]-methyl-amino]ethyl]-1,2,4-triazol-1-yl]pyridine-3-carbonitrile]
≥ 80%: percent control (mortality, anti-feedant effect or growth inhibition) at 200 ppm [1] | mortality at 12 ppm [2] | percent control (mortality or growth inhibition) at 200 ppm [3] | percent control (mortality or growth inhibition) at 200 ppm [4] | percent control (mortality, anti-feedant effect or growth inhibition) at 200 ppm [5] | percent control (mortality or growth inhibition) at 200 ppm [6] | mortality at 200 ppm [7]

CCN(c1ncnc2c(C(F)(F)F)cc(C(F)(F)F)cc12)C(C)c1ncnn1-c1ccc(C#N)cn1 (centres unmarked) [P.6, 6-[5-[1-[[6,8-bis(trifluoromethyl)quina-zolin-4-yl]-ethyl-amino]ethyl]-1,2,4-triazol-1-yl]pyridine-3-carbonitrile]
≥ 80%: percent control (mortality, anti-feedant effect or growth inhibition) at 200 ppm [1] | mortality at 12 ppm [2] | percent control (mortality or growth inhibition) at 200 ppm [3] | percent control (mortality or growth inhibition) at 200 ppm [4] | percent control (mortality, anti-feedant effect or growth inhibition) at 200 ppm [5] | percent control (mortality or growth inhibition) at 200 ppm [6] | mortality at 200 ppm [7]

C[C@@H](c1ncnn1-c1ccc(C#N)cn1)N(C)c1ncnc2c(C(F)(F)F)cc(Cl)cc12 [P.21, 6-[5-[(1S)-1-[[6-chloro-8-(trifluoromethyl)quinazolin-4-yl]-methyl-amino]ethyl]-1,2,4-triazol-1-yl]pyridine-3-carbonitrile]
≥ 80%: percent control (mortality, anti-feedant effect or growth inhibition) at 200 ppm [1] | mortality at 12 ppm [2] | percent control (mortality or growth inhibition) at 200 ppm [3] | percent control (mortality or growth inhibition) at 200 ppm [4] | percent control (mortality, anti-feedant effect or growth inhibition) at 200 ppm [5] | percent control (mortality or growth inhibition) at 200 ppm [6] | mortality at 200 ppm [7]

C[C@@H](c1ncnn1-c1ccc(C#N)cn1)N(CC1CC1)c1ncnc2c(Cl)cc(C(F)(F)F)cc12 [P.271, 6-[5-[(1S)-1-[[8-chloro-6-(trifluoromethyl)quinazolin-4-yl]-(cyclopropylmethyl)amino]ethyl]-1,2,4-triazol-1-yl]pyridine-3-carbonitrile]
≥ 80%: percent control (mortality, anti-feedant effect or growth inhibition) at 200 ppm [1] | mortality at 12 ppm [2] | percent control (mortality or growth inhibition) at 200 ppm [3] | percent control (mortality or growth inhibition) at 200 ppm [4] | percent control (mortality, anti-feedant effect or growth inhibition) at 200 ppm [5] | percent control (mortality or growth inhibition) at 200 ppm [6] | mortality at 200 ppm [7]

CC(c1ncnn1-c1ncccn1)N(C)c1ncnc2c(C(F)(F)F)cc(C(F)(F)F)cc12 (centres unmarked) [P.27, N-methyl-N-[1-(2-pyrimidin-2-yl-1,2,4-triazol-3-yl)ethyl]-6,8-bis(trifluoromethyl)quinazolin-4-amine]
≥ 80%: percent control (mortality, anti-feedant effect or growth inhibition) at 200 ppm [1] | mortality at 12 ppm [2] | percent control (mortality or growth inhibition) at 200 ppm [3] | percent control (mortality or growth inhibition) at 200 ppm [4] | percent control (mortality, anti-feedant effect or growth inhibition) at 200 ppm [5] | percent control (mortality or growth inhibition) at 200 ppm [6] | mortality at 200 ppm [7]

C[C@@H](c1ncnn1-c1ncccn1)N(C)c1ncnc2c(I)cc(C(F)(F)F)cc12 [P.219, 8-iodo-N-methyl-N-[(1S)-1-(2-pyrimidin-2-yl-1,2,4-triazol-3-yl)ethyl]-6-(trifluoromethyl)quinazolin-4-amine]
≥ 80%: percent control (mortality, anti-feedant effect or growth inhibition) at 200 ppm [1] | mortality at 12 ppm [2] | percent control (mortality or growth inhibition) at 200 ppm [3] | percent control (mortality or growth inhibition) at 200 ppm [4] | percent control (mortality, anti-feedant effect or growth inhibition) at 200 ppm [5] | percent control (mortality or growth inhibition) at 200 ppm [6] | mortality at 200 ppm [7]

CC(c1ncnn1-c1ncccn1)N(C)c1ncnc2c(OC(F)F)cc(Br)cc12 (centres unmarked) [P.245, 6-bromo-8-(difluoromethoxy)-N-methyl-N-[1-(2-pyrimidin-2-yl-1,2,4-triazol-3-yl)ethyl]quinazolin-4-amine]
≥ 80%: percent control (mortality, anti-feedant effect or growth inhibition) at 200 ppm [1] | mortality at 12 ppm [2] | percent control (mortality or growth inhibition) at 200 ppm [3] | percent control (mortality or growth inhibition) at 200 ppm [4] | percent control (mortality, anti-feedant effect or growth inhibition) at 200 ppm [5] | percent control (mortality or growth inhibition) at 200 ppm [6] | mortality at 200 ppm [7]

C[C@@H](c1ncnn1-c1ncccn1)N(C)c1ncnc2c(C(F)(F)F)cc(C(F)(F)F)cc12 [P.26, N-methyl-N-[(1S)-1-(2-pyrimidin-2-yl-1,2,4-triazol-3-yl)ethyl]-6,8-bis(trifluoromethyl)quina-zolin-4-amine]
≥ 80%: percent control (mortality, anti-feedant effect or growth inhibition) at 200 ppm [1] | mortality at 12 ppm [2] | percent control (mortality or growth inhibition) at 200 ppm [3] | percent control (mortality or growth inhibition) at 200 ppm [4] | percent control (mortality, anti-feedant effect or growth inhibition) at 200 ppm [5] | percent control (mortality or growth inhibition) at 200 ppm [6] | mortality at 200 ppm [7]
